Measured values as given in patent US20030099600A1, “Metalloproteinase inhibitors for the treatment of respiratory diseases” (priority 2000, published 2003).

Tests used:
MMP-1 = assay: Lung tissue study: MMP-1 released by human lung tissue in vitro (ELISA); format: cell-based; conditions: 24 hours; for MMP-1 % of IL-1: 100 U/ml IL-1 stimulated; for MMP-1 % of control: unstimulated fragments
Procedure: (§1) This study was done to assess the effects of doxycycline on the release of matrix metalloproteinases by human lung tissue in vitro.
(§2) On the following day, 2-3 fragments (total weight 50 mg) were placed in 0.8 ml of culture buffer and 0.1 ml of doxycycline (to give a final concentration of 10^−4-10^−8M) or a buffer control was added.
(§3) After one hours incubation at 37° C., the fragments were treated with either 0.1 ml of either a buffer control (unstimulated fragments) or 1000 U/ml interleukin-1 (final concentration of 100 U/ml IL-1). The fragments were then incubated for 24 hours and the supernatant recovered; the tissue was weighed and stored at −70° C.
(§4) The MMPs and TIMPs released into the supematant were measured using commercial ELISAs (Amersham); values were expressed as ng of MMP/TIMP per mg of lung tissue.
MMP-1 levels are analysed by Elisa plates (Code No. RPN2610) from Amersham Pharmacia Biotech UK Limited, Amersham Place, Little Chalfont, BUCKS HP7 9NA.
(§5) The Elisa is run as per manufacturer's instructions.
This Elisa is specific for total MMP-1; recognising pro MMP-1, active MMP-1 and MMP-1/TIMP-1 complex.

MMP-2 = assay: Lung tissue study: MMP-2 released by human lung tissue in vitro (ELISA); format: cell-based; conditions: 24 hours; for MMP-2 % of IL-1: 100 U/ml IL-1 stimulated; for MMP-2 % of control: unstimulated fragments
Procedure: as §1, §2, §3, §4
MMP-2 levels are analysed by Elisa plates (Code No. RPN2617) from Amersham Pharmecia Biotech UK Limited, Amersham Place, Little Chalfont, BUCKS HP7 9NA.
as §5
This Elisa is specific for proMMP-2; recognising free proMMP-2 and MMP-2 complexed to TIMP-2, but not the active form of MMP-2. No cross-reactivity with MMP-1, 3, 7, 8, 9 and MT1-MMP.

MMP-9 [1] = assay: Lung tissue study: MMP-9 released by human lung tissue in vitro (ELISA); format: cell-based; conditions: 24 hours; for MMP-9 % of IL-1: 100 U/ml IL-1 stimulated; for MMP-9 % of control: unstimulated fragments
Procedure: as §1, §2, §3, §4

TIMP-1 [2] = assay: Lung tissue study: TIMP-1 released by human lung tissue in vitro (ELISA); format: cell-based; conditions: 24 hours; for TIMP-1 % of IL-1: 100 U/ml IL-1 stimulated; for TIMP-1 % of control: unstimulated fragments
Procedure: as §1, §2, §3, §4

MMP-9 [3] = assay: Human study in COPD subjects: MMP-9 levels (ELISA); format: in vivo; conditions: for MMP-9 % of control: capsules 50, 100, 200 mg ascending, 3 days each, 4-day wash out
Procedure: (§6) This was an open-label, ascending dose, cross-over study. Suitable subjects with chronic obstructive pulmonary disease (COPD) had their respiratory function assessed at baseline and provided sputum and blood for MMP and doxycycline levels. They then received 50 mg, 100 mg and 200 mg of doxycycline capsules for a period of 3 days in ascending order. At the end of each treatment period a further assessment of respiratory function was performed, and a sputum and blood sample was analysed for MMP, TIMP-1 and doxycycline levels. There was a 4-day wash out period between each treatment period of the study. The MMPs and TIMPs released were measured using commercial ELISAs as detailed above for the lung tissue study.

TIMP-1 [4] = assay: Human study in COPD subjects: TIMP-1 levels (ELISA); format: in vivo; conditions: for TIMP-1 % of control: capsules 50, 100, 200 mg ascending, 3 days each, 4-day wash out
Procedure: as §6

[5] = route of administration that avoids first-pass metabolism; cited from earlier work
[6] = oral route; cited from earlier work
[7] = Mean of study days 4, 8, 11, 15, 18, COPD subjects

SMILES: C[C@H]1c2cccc(O)c2C(=O)C2=C(O)[C@]3(O)C(=O)C(C(N)=O)=C(O)[C@@H](N(C)C)[C@@H]3[C@@H](O)[C@@H]21 [doxycycline]
- MMP-1 % of IL-1 (MMP-1; 10^-4 M): 14.75%
- MMP-1 % of control (MMP-1; 10^-4 M): 24.05%
- MMP-1 % of IL-1 (MMP-1; 10^-6 M): 61.47%
- MMP-1 % of control (MMP-1; 10^-6 M): 84.10%
- MMP-1 % of IL-1 (MMP-1; 10^-8 M): 51.87%
- MMP-1 % of control (MMP-1; 10^-8 M): 76.50%
- MMP-2 % of IL-1 (MMP-2; 10^-4 M): 49.23%
- MMP-2 % of control (MMP-2; 10^-4 M): 34.34%
- MMP-2 % of IL-1 (MMP-2; 10^-6 M): 86.86%
- MMP-2 % of control (MMP-2; 10^-6 M): 219.33%
- MMP-2 % of IL-1 (MMP-2; 10^-8 M): 95.75%
- MMP-2 % of control (MMP-2; 10^-8 M): 101.47%
- MMP-9 % of IL-1 (MMP-9 [1]; 10^-4 M): 51.04%
- MMP-9 % of control (MMP-9 [1]; 10^-4 M): 39.36%
- MMP-9 % of IL-1 (MMP-9 [1]; 10^-6 M): 99.29%
- MMP-9 % of control (MMP-9 [1]; 10^-6 M): 116.84%
- MMP-9 % of IL-1 (MMP-9 [1]; 10^-8 M): 127.04%
- MMP-9 % of control (MMP-9 [1]; 10^-8 M): 113.57%
- TIMP-1 % of IL-1 (TIMP-1 [2]; 10^-4 M): 75.47%
- TIMP-1 % of control (TIMP-1 [2]; 10^-4 M): 44.49%
- TIMP-1 % of IL-1 (TIMP-1 [2]; 10^-6 M): 508.92%
- TIMP-1 % of control (TIMP-1 [2]; 10^-6 M): 182.40%
- TIMP-1 % of IL-1 (TIMP-1 [2]; 10^-8 M): 461.92%
- TIMP-1 % of control (TIMP-1 [2]; 10^-8 M): 172.02%
- MMP-9 % of control (MMP-9 [3]; Day of Study 4, COPD subjects): 39.43%
- MMP-9 % of control (MMP-9 [3]; Day of Study 8, COPD subjects): 12.85%
- MMP-9 % of control (MMP-9 [3]; Day of Study 11, COPD subjects): 29.17%
- MMP-9 % of control (MMP-9 [3]; Day of Study 15, COPD subjects): 22.41%
- MMP-9 % of control (MMP-9 [3]; Day of Study 18, COPD subjects): 29.03%
- MMP-9 % of control, Mean (MMP-9 [3]; [7]): 26.58%
- reduction in MMP-9 activity (MMP-9 [3]; human patient study): 73%
- TIMP-1 % of control (TIMP-1 [4]; Day of Study 4, COPD subjects): 116.24%
- TIMP-1 % of control (TIMP-1 [4]; Day of Study 15, COPD subjects): 974.24%
- TIMP-1 % of control, Mean (TIMP-1 [4]; [7]): 978.67%
- increase in TIMP-1 (TIMP-1 [4]; human patient study): 10 fold
- upregulation of TIMP-1 in COPD sputum, % of untreated levels (TIMP-1 [4]; repeated dosing at 100 mg once daily): about 1000%
- lung concentration relative to the level in plasma [5]: up to 10 times
- protein binding [6]: very highly protein-bound
